Data set [1] is described as follows: Test for measuring dissolution rate (rotating disk method). It is filed as physicochemical. As to conditions: 2nd fluid pH 6.8, 500 mL, 37° C., 50 rpm, 1 cm^2. Here is the method:
The dissolution rates of the following crystal and amorphous compounds were measured under the conditions described below by the rotating disk method (see, J. H. Woods et al., J. Pharm. Soc., 54, 1068 (1955)): a crystalline form of the free carboxamide obtained in Preparation Example 1, an amorphous form of the methanesulfonate of the carboxamide obtained in Example 1 and an amorphous form of the ethanesulfonate obtained in Example 2. The dissolution rates were calculated based on a range in which linearity was maintained in the relation between concentration and time at the initial stage of dissolution.
(Rotating disk method conditions)
Solvent: “2nd fluid” (pH 6.8, 500 mL) as described in Japanese Pharmacopoeia 14th Edition, General Tests (disintegration test)
Disk rotation speed: 50 rpm
Area of powder contacting with solvent on disk: 1 cm^2
Sampling amount: approx. 1 mL
Column: YMC Pack ProC18 (YMC Co., Ltd.; inner diameter 4.6 mm, column length 150 mm, particle size 5 μm)
Column temperature: 40° C.
Concentration of solution B: 20%
Detection: ultraviolet absorbance photometer (wavelength: 252 nm)
Temperature of auto sampler: 25° C.

Data set [2] concerns angiogenesis. As to conditions: free-form product; WO02/32872 Example 368; cited from earlier work.
Data set [3] concerns the target c-Kit kinase (Homo sapiens, UniProt P10721). As to conditions: AACR 2004 proceedings; WO2004/080462; cited from earlier work.

SMILES strings stand for the structures.

Chain of c-Kit kinase (P10721 26-976): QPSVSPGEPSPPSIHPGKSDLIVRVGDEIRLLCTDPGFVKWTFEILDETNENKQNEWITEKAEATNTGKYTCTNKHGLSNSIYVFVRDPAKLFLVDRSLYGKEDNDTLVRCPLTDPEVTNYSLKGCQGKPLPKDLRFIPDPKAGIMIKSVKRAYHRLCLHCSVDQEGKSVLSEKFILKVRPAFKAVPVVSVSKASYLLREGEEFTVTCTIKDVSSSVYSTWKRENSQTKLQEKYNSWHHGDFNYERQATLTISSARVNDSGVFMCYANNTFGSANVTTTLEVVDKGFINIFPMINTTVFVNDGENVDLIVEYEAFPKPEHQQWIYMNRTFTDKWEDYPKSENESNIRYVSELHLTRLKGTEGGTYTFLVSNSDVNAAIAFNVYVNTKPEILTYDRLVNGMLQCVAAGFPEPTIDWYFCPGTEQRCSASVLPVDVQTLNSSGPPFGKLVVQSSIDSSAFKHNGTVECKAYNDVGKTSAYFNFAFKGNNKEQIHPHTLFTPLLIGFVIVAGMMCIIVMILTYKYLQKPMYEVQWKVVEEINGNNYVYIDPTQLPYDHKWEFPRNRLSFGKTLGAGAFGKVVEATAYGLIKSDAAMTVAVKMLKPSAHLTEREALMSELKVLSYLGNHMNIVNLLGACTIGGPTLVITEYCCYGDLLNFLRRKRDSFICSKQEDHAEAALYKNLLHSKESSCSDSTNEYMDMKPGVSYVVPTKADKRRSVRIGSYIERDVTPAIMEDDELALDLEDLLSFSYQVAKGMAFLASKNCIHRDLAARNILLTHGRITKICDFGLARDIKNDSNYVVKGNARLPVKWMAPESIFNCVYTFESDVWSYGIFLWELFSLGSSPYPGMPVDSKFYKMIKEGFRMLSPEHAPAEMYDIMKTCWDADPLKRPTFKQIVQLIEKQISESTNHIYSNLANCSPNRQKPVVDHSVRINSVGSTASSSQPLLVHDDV

Compound `CCS(=O)(=O)O.COc1cc2nccc(Oc3ccc(NC(=O)NC4CC4)c(Cl)c3)c2cc1C(N)=O` [esylate amorphous, An amorphous form of the ethanesulfonate of 4-(3-chloro-4-(cyclopropylaminocarbonyl)aminophenoxy)-7-methoxy-6-quinolinecarboxamide] showed a dissolution rate in data set [1] of 25.1 μg/min/cm^2.

As for `COc1cc2nccc(Oc3ccc(NC(=O)NC4CC4)c(Cl)c3)c2cc1C(N)=O` [free form, 4-(3-chloro-4-(cyclopropylaminocarbonyl)aminophenoxy)-7-methoxy-6-quinolinecarboxamide], the angiogenesis inhibition entry in data set [2] is “excellent angiogenesis inhibition”. Besides, the “inhibitory action for c-Kit kinase” value in data set [3] is recorded as “strong inhibitory action”. In addition, the dissolution rate in data set [1] is recorded as 1.1 μg/min/cm^2.

For `COc1cc2nccc(Oc3ccc(NC(=O)NC4CC4)c(Cl)c3)c2cc1C(N)=O.CS(=O)(=O)O` [mesylate amorphous, An amorphous form of the methanesulfonate of 4-(3-chloro-4-(cyclopropylaminocarbonyl)aminophenoxy)-7-methoxy-6-quinolinecarboxamide], the dissolution rate in data set [1] is recorded as 22.7 μg/min/cm^2.
